Where two headings read alike, the source gives them in different places.
Tests used:
Format in all cases: biochemical
SET8 = target: T1, SET8 (Homo sapiens, UniProt Q9NQR1); assay: PMT filter-paper methylation assay, SET8; conditions: SET8 (191-352) 1000 nM final, H4 (10-30 aa), 8 h
T1 construct: SET8 (191-352)
T1 sequence (Q9NQR1 191-352 isoform Q9NQR1-2): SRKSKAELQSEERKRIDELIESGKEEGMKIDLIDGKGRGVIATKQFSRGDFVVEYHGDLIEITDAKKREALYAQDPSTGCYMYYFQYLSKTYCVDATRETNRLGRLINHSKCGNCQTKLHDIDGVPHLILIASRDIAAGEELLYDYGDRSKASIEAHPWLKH
Protocol: (§1) Methylation Reaction. The 20 μL methylation reaction was carried out at ambient temperature using two mixtures: A. 10 μl of enzyme mixture in the assay buffer containing 50 mM Hepes (pH=8.0), 0.005% Tween-20, 5 μg/ml BSA and 1 mM TCEP; B. 10 μl of a mixture of 1.5 μM, 0.15 μCi [^3H-Me]-SAM cofactor and 3 μM of the corresponding peptide substrate in the same assay buffer. After A and B were mixed for a designated time period, the reaction mixture was examined with our filter-paper assay.
(§2) Filter-paper Assay. This assay relies on Whatman P-81 filter paper, which binds peptides but not SAM. Protein Methyl Transferases (PMTs) transfer ^3H-Me of [^3H-Me]-SAM to peptide substrates and the resultant ^3H-methylated, filter-paper-bound peptide is quantified with a scintillation counter. […] The radioactivity was quantified by a Beckman LS6000IC liquid scintillation counter.
(§3) Dose-response Curves and IC50. […] After incubating the reaction mixture for the respective reaction time, the conversion was quantified with the filter paper assay as described above. The inhibition was expressed as the percentage between the high control (no inhibition) and the low control (no enzyme) as follows: Percentage Inhibition=[(high control−reading)/(high control−low control)]×100%. […]

G9a = target: T2, G9a (Homo sapiens, UniProt Q96KQ7); assay: PMT filter-paper methylation assay, G9a; conditions: G9a (913-1913) 20 nM final, H3 (1-21 aa), 1 h
T2 construct: G9a (913-1913)
T2 sequence (Q96KQ7 913-1193 limits assumed): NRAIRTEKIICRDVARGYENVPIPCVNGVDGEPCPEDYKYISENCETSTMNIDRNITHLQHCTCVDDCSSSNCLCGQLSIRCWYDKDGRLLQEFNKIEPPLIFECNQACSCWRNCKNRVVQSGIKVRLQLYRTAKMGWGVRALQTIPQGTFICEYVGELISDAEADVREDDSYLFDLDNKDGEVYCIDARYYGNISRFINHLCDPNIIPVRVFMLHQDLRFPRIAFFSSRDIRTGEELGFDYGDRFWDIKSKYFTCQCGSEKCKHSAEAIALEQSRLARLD

PRMT1 = target: T3, PRMT1 (Homo sapiens, UniProt Q99873); assay: PMT filter-paper methylation assay, PRMT1; conditions: PRMT1 (10-352), 100 nm, RGG substrate, 1.5 h
T3 construct: PRMT1 (10-352)

CARM1 = target: T4, CARM1 (Homo sapiens, UniProt Q86X55); assay: PMT filter-paper methylation assay, CARM1; conditions: H3 (1-40 aa), 7 h
T4 construct: CARM1 (19-608)
T4 sequence (Q86X55 19-608): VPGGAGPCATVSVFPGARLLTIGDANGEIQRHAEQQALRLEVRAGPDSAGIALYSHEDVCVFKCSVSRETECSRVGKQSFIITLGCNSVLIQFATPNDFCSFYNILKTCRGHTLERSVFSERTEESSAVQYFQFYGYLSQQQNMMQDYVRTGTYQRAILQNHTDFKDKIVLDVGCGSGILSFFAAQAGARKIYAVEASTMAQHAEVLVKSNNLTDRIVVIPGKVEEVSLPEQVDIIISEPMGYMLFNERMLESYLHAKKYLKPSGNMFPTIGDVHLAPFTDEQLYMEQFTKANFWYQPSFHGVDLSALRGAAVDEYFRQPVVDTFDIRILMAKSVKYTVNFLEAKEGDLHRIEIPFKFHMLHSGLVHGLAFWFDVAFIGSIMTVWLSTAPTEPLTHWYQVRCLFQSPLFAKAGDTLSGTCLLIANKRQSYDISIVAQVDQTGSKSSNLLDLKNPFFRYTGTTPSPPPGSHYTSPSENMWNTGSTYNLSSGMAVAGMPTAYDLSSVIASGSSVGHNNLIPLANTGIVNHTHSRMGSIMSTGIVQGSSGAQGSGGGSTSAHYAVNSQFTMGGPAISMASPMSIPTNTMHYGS

SETD2 = target: T5, SETD2 (Homo sapiens, UniProt Q9BYW2); assay: PMT filter-paper methylation assay, SETD2; conditions: SETD2 (1347-1711) 250 nM final, H3 (20-50 aa), 4 h
T5 construct: SETD2 (1347-1711)
T5 sequence (Q9BYW2 1347-1711): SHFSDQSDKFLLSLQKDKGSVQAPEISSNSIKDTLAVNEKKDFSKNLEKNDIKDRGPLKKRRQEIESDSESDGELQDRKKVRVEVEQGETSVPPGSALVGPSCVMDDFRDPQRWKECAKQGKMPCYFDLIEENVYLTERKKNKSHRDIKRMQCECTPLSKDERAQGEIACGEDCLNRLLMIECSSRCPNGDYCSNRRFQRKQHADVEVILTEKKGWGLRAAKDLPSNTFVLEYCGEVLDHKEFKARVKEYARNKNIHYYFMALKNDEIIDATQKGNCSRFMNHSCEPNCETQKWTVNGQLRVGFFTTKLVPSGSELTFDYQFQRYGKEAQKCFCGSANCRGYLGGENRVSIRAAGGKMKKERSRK
Protocol: as §1, §2, §3

SET7/9 = target: T6, SET7/9 (Homo sapiens, UniProt Q8WTS6); assay: PMT filter-paper methylation assay, SET7/9; conditions: SET7/9 full-length 150 nM final, H3 (1-21 aa), 3 h
T6 construct: SET7/9 Full-length
T6 sequence (Q8WTS6 1-366): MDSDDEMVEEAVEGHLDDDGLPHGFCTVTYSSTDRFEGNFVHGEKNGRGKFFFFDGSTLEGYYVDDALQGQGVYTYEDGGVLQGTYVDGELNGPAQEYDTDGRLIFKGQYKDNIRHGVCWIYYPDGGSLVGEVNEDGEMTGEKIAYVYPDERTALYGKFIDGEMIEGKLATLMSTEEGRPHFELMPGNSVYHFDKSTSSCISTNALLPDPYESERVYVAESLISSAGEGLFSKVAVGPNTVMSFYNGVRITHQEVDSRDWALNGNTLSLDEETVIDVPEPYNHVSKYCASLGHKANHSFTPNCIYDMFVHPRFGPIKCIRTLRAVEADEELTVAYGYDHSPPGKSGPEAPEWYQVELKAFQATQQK
Protocol: as §1, §2, §3

SMYD2-FL = target: T7, SMYD2-FL (Homo sapiens, UniProt Q9NRG4); assay: PMT filter-paper methylation assay, SMYD2; conditions: SMYD2 full-length 50 nM final, p53 (360-393 aa), 10 h
T7 construct: SMYD2 Full-length
Protocol: as §1, §2, §3

PRMT3 = target: T8, PRMT3 (Homo sapiens, UniProt O60678); assay: PMT filter-paper methylation assay, PRMT3; conditions: PRMT3 (211-531) 100 nM final, RGG, 3 h
T8 construct: PRMT3 (211-531)

SUV39H2 = target: T9, SUV39H2 (Homo sapiens, UniProt Q9H5I1); assay: PMT filter-paper methylation assay, SUV39H2; conditions: SUV39H2 (112-410) 5 nM final, H3 (1-21 aa), 4 h
T9 construct: SUV39H2 (112-410)

GLP1 = target: T10, GLP1 (Homo sapiens, UniProt Q9H9B1); assay: PMT filter-paper methylation assay, GLP1; conditions: GLP1 (951-1235) 10 nM final, H3 (1-21 aa), 1 h
T10 construct: GLP1 (951-1235)
T10 sequence (Q9H9B1 982-1266): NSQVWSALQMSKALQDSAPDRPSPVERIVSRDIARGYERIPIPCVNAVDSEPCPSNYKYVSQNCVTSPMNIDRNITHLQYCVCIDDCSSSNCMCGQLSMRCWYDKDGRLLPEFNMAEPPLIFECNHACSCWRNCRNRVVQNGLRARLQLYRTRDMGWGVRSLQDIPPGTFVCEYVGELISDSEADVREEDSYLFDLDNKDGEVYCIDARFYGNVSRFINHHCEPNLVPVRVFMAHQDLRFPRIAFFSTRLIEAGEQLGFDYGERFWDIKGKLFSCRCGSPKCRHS
Protocol: as §1, §2, §3

PRMT8 = PRMT8 (Homo sapiens, UniProt Q9NR22); assay: PMT filter-paper methylation assay, PRMT8
Protocol: as §1, §2, §3

MLL1 = MLL1 (Homo sapiens, UniProt Q03164); assay: PMT filter-paper methylation assay, MLL1
Protocol: as §1, §2, §3

SMYD3 = target: T11, SMYD3 (Homo sapiens, UniProt Q9H7B4); assay: PMT filter-paper methylation assay, SMYD3; conditions: SMYD3 125 nM final, MAP3K2 (1-350 aa), 2 h
T11 sequence (Q9H7B4 1-428): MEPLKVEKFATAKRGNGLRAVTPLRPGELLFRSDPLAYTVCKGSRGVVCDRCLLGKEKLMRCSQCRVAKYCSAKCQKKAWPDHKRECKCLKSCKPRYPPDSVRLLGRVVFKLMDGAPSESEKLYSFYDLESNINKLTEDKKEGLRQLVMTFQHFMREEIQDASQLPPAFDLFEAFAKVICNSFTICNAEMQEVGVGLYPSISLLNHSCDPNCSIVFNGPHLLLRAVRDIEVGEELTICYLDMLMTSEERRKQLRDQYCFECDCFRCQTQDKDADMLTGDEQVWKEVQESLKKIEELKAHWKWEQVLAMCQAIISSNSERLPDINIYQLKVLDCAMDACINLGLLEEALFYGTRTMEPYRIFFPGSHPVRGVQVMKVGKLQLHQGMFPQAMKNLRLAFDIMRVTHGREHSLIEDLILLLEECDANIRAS
Protocol: as §1, §2, §3

T8 sequence (O60678 211-531): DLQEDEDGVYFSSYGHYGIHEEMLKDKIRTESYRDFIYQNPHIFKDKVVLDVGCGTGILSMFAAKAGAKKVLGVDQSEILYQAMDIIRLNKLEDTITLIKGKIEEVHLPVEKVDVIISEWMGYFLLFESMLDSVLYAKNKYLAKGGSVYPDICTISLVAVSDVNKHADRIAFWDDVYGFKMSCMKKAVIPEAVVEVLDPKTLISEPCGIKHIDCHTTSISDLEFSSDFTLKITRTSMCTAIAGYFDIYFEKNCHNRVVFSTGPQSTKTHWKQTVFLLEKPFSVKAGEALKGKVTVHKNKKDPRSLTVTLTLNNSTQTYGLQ
T7 sequence (Q9NRG4 whole entry, the tested form may be a part): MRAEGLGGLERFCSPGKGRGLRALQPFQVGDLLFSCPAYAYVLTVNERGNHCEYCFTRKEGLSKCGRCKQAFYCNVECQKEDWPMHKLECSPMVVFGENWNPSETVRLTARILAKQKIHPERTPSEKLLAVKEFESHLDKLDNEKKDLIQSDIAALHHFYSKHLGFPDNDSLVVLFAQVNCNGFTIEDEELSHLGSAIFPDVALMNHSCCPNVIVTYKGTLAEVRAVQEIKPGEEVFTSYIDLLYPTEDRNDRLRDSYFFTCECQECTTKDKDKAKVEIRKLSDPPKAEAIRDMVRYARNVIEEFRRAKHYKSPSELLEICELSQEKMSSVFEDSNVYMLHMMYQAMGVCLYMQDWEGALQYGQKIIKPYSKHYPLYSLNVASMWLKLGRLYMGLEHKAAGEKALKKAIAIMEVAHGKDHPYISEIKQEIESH
T3 sequence (Q99873 10-352 isoform Q99873-3): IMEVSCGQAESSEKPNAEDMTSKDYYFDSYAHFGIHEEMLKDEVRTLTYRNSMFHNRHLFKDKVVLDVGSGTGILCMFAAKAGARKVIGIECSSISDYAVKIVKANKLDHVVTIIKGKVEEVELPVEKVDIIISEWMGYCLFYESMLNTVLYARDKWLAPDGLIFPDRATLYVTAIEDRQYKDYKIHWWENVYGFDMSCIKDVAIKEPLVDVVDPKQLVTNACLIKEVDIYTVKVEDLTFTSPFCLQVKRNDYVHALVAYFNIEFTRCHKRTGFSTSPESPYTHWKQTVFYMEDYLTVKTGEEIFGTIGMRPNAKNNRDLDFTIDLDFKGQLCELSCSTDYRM
Chain of PRMT8 (Q9NR22 whole entry): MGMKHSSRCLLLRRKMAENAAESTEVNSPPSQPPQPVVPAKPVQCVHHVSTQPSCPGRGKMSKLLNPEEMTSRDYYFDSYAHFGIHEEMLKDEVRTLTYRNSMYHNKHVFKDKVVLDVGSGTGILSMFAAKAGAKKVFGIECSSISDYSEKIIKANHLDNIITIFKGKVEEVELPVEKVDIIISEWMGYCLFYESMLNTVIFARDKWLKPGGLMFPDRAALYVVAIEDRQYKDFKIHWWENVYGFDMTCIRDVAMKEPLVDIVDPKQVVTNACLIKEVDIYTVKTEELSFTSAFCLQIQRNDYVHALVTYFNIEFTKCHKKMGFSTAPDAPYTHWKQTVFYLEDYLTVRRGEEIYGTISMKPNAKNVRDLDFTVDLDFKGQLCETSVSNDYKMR
T9 sequence (Q9H5I1 112-410): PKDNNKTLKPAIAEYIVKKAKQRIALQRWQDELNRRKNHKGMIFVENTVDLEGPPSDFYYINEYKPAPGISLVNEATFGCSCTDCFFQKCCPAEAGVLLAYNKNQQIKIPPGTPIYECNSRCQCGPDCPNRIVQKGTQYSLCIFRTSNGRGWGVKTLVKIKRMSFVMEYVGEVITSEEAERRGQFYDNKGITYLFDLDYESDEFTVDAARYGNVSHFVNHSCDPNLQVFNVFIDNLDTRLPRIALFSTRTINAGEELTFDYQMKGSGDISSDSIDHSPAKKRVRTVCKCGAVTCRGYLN

IC50 (SET8): > 50 µM
IC50 (G9a): > 50 µM
IC50 (PRMT1): > 50 µM
IC50 (CARM1; CARM1 (19-608)^a 300 nM final enzyme, read-out: IC50 CARM1^a): 0.3 µM
IC50 (CARM1; CARM1 (19-608)^b 25 nM final enzyme, read-out: IC50 CARM1^b): 0.05 µM
IC50 (SETD2): 45 µM
IC50 (SET7/9): > 50 µM
IC50 (SMYD2-FL): > 50 µM
IC50 (PRMT3): > 50 µM
IC50 (SUV39H2): > 50 µM
IC50 (GLP1): > 50 µM
IC50 (PRMT8): > 50 µM
IC50 (MLL1): 4.5 µM
IC50 (SMYD3): > 50 µM
Structure (SMILES): CC(C)(C)c1ccc(NC(=O)NCCC[C@H](CNCc2ccccc2)C[C@H]2O[C@@H](n3cnc4c(N)ncnc43)C(O)C2O)cc1 (some centres unmarked) [Example 104]
